Measured values reported in publication PMC11845477, “Exploring the principles behind antibiotics with limited resistance” (Nature Communications, 2025).

Tests used:
[1] = test system: E. coli ATCC 25922 (SEN) and E. coli NCTC13846 (MDR); assay: Adaptive laboratory evolution (ALE), relative MIC of evolved lines; assay type: cell-based, Escherichia coli
Text: Using the same set of bacterial strains, we initiated adaptive laboratory evolution with the aim to maximize the level of antibiotic resistance in the populations achieved during a longer, but fixed time period.
An established protocol for adaptive laboratory evolution[46],[73] was followed to propagate populations with the highest resistance levels. Starting with an antibiotic concentration that caused approximately 50% growth inhibition, ten parallel populations for each antibiotic-ancestor strain combination were grown for 72 hours at 37 °C with continuous shaking (300 RPM). MHB broth medium was used unless stated otherwise. After each incubation, 20 µl of each culture was transferred to four new wells containing fresh medium with increasing antibiotic concentrations (0.5×, 1×, 1.5×, and 2.5× the previous concentration) in a chessboard layout to monitor potential cross-contamination. Growth was monitored by measuring OD600 using a Biotek Synergy 2 microplate reader, and only populations grown in the highest drug concentration with an OD600 > 0.2 were transferred further.
A robotic liquid handling system was used to automatically prepare a 11 to 16-step serial dilution in 384-well microtiter plates (Greiner). A final concentration of 5 × 10^5 bacterial cells per mL were inoculated into each well containing 60 µL MHB medium. Bacterial cultures were incubated at 37 °C with continuous shaking (Infors shaker, 900 rpm with 3 mm throw) for 18 hours (2 replicates from each). Cell growth was monitored by measuring the optical density (OD600 values, using Biotek Synergy microplate reader). MIC was defined as the antibiotic concentration of complete growth inhibition (i.e., OD600 < 0.05). Relative MIC was calculated as follows:1 relativeMIC=MICevolved/MICancestor […]
Supplementary Figure 4. Resistance levels following adaptive laboratory evolution across bacterial strains. The level of resistance was measured as the fold change in relative MIC between evolved and ancestral strains after ~60 days of adaptive laboratory evolution. Data are grouped by bacterial strain (A. baumannii (AB), E. coli (EC), K. pneumoniae (KP), and P. aeruginosa (PA)) and categorized as either multidrug-resistant (MDR) or sensitive (SEN). Each data point represents a laboratory evolved line, and boxplots show the median, first and third quartiles, with whiskers indicating the 5th and 95th percentiles.
Statistical analysis was performed using two-sided Dunn’s post-hoc test with Benjamini-Hochberg correction for multiple comparisons (****/ ***/ **/ * indicates p < 0.0001/ 0.001/ 0.01/ 0.05). For detailed information on antibiotic and bacterial species, see Supplementary Table 1. For mode of action groups, refer to Table 1. Source data are provided as a Source Data file.
(1 picture or pasted object on this page, not shown here)

[2] = test system: E. coli ATCC 25922 (SEN) and E. coli NCTC13846 (MDR); assay: microbe, parasite or virus in culture; assay type: cell-based, Escherichia coli; conditions: for MIC: Escherichia coli, across three biological replicates
Method: (§1) This study focused on multiple bacterial strains, as follows. For the FoR and ALE experiments, 2 strains per species were chosen: E. coli ATCC 25922, K. pneumoniae ATCC 10031, A. baumannii ATCC 17978, and P. aeruginosa ATCC BAA-3107 as sensitive (SEN) strains, and E. coli NCTC13846, K. pneumoniae ATCC 700603, A. baumannii ATCC BAA-1605 and P. aeruginosa LESB58 as multi-drug resistant (MDR) strains. Functional metagenomic screens were performed with E. coli ATCC 25922 and K. pneumoniae ATCC 10031 strains. To determine the dose-kill properties of the different antibiotics, an E. coli strain (ATCC 25922) expressing a yellow fluorescent protein (pZS2R, YFP, CHL^R) and a red fluorescent protein (pZS2R, mCherry, CHL^R) was used.
(§2) Unless otherwise indicated, cation-adjusted Mueller-Hinton Broth 2 (MHB, Millipore) medium was used throughout the study, except for SCH79797 (SCH).
(§3) A robotic liquid handling system was used to automatically prepare a 11 to 16-step serial dilution in 384-well microtiter plates (Greiner). A final concentration of 5 × 10^5 bacterial cells per mL were inoculated into each well containing 60 µL MHB medium. Bacterial cultures were incubated at 37 °C with continuous shaking (Infors shaker, 900 rpm with 3 mm throw) for 18 hours (2 replicates from each). Cell growth was monitored by measuring the optical density (OD600 values, using Biotek Synergy microplate reader). MIC was defined as the antibiotic concentration of complete growth inhibition (i.e., OD600 < 0.05). Relative MIC was calculated as follows:1 relativeMIC=MICevolved/MICancestor

[3] = test system: A. baumannii ATCC 17978 (SEN) and A. baumannii ATCC BAA-1605 (MDR); assay: microbe, parasite or virus in culture; assay type: cell-based, Acinetobacter baumannii; conditions: for MIC: Acinetobacter baumannii, across three biological replicates
Method: as §1, §2, §3

## CNC(C)C1CCC(N)C(OC2C(N)CC(N)C(OC3OCC(C)(O)C(NC)C3O)C2O)O1 (centres unmarked) [Gentamicin]
[1]; EC-MDR (Escherichia coli NCTC 13846), evolved line 3 adapted to the named antibiotic
  Relative MIC (log10): 1.806
[1]; EC-MDR (Escherichia coli NCTC 13846), evolved line 5 adapted to the named antibiotic
  Relative MIC (log10): 1.806
[1]; EC-MDR (Escherichia coli NCTC 13846), evolved line 6 adapted to the named antibiotic
  Relative MIC (log10): 1.806
[1]; EC-MDR (Escherichia coli NCTC 13846), evolved line 7 adapted to the named antibiotic
  Relative MIC (log10): 1.505
[1]; EC-MDR (Escherichia coli NCTC 13846), evolved line 9 adapted to the named antibiotic
  Relative MIC (log10): 1.806
[1]; EC-MDR, Escherichia coli NCTC 13846, evolved line 1 versus ancestor
  Relative MIC: 64
[1]; EC-MDR, Escherichia coli NCTC 13846, evolved line 2 versus ancestor
  Relative MIC: 32
[1]; EC-MDR, Escherichia coli NCTC 13846, evolved line 3 versus ancestor
  Relative MIC: 64
[1]; EC-MDR, Escherichia coli NCTC 13846, evolved line 4 versus ancestor
  Relative MIC: 64
[1]; EC-MDR, Escherichia coli NCTC 13846, evolved line 5 versus ancestor
  Relative MIC: 64
[1]; EC-MDR, Escherichia coli NCTC 13846, evolved line 6 versus ancestor
  Relative MIC: 64
[1]; EC-MDR, Escherichia coli NCTC 13846, evolved line 7 versus ancestor
  Relative MIC: 32
[1]; EC-MDR, Escherichia coli NCTC 13846, evolved line 8 versus ancestor
  Relative MIC: 64
[1]; EC-MDR, Escherichia coli NCTC 13846, evolved line 9 versus ancestor
  Relative MIC: 64
[1]; EC-SEN (Escherichia coli ATCC 25922), evolved line 2 adapted to the named antibiotic
  Relative MIC (log10): 1.505
[1]; EC-SEN (Escherichia coli ATCC 25922), evolved line 4 adapted to the named antibiotic
  Relative MIC (log10): 2.107
[1]; EC-SEN (Escherichia coli ATCC 25922), evolved line 5 adapted to the named antibiotic
  Relative MIC (log10): 1.806
[1]; EC-SEN (Escherichia coli ATCC 25922), evolved line 6 adapted to the named antibiotic
  Relative MIC (log10): 2.107
[1]; EC-SEN (Escherichia coli ATCC 25922), evolved line 9 adapted to the named antibiotic
  Relative MIC (log10): 1.806
[1]; EC-SEN, Escherichia coli ATCC 25922, evolved line 2 versus ancestor
  Relative MIC: 32
[1]; EC-SEN, Escherichia coli ATCC 25922, evolved line 3 versus ancestor
  Relative MIC: 32
[1]; EC-SEN, Escherichia coli ATCC 25922, evolved line 4 versus ancestor
  Relative MIC: 128
[1]; EC-SEN, Escherichia coli ATCC 25922, evolved line 5 versus ancestor
  Relative MIC: 64
[1]; EC-SEN, Escherichia coli ATCC 25922, evolved line 6 versus ancestor
  Relative MIC: 128
[1]; EC-SEN, Escherichia coli ATCC 25922, evolved line 7 versus ancestor
  Relative MIC: 32
[1]; EC-SEN, Escherichia coli ATCC 25922, evolved line 8 versus ancestor
  Relative MIC: 64
[1]; EC-SEN, Escherichia coli ATCC 25922, evolved line 9 versus ancestor
  Relative MIC: 64
[1]; EC-SEN, Escherichia coli ATCC 25922, evolved line 10 versus ancestor
  Relative MIC: 16
[1]; Escherichia coli ATCC 25922 (EC-SEN), evolved line 2
  Relative MIC: 32
[1]; Escherichia coli ATCC 25922 (EC-SEN), evolved line 3
  Relative MIC: 32
[1]; Escherichia coli ATCC 25922 (EC-SEN), evolved line 4
  Relative MIC: 128
[1]; Escherichia coli ATCC 25922 (EC-SEN), evolved line 5
  Relative MIC: 64
[1]; Escherichia coli ATCC 25922 (EC-SEN), evolved line 6
  Relative MIC: 128
[1]; Escherichia coli ATCC 25922 (EC-SEN), evolved line 7
  Relative MIC: 32
[1]; Escherichia coli ATCC 25922 (EC-SEN), evolved line 8
  Relative MIC: 64
[1]; Escherichia coli ATCC 25922 (EC-SEN), evolved line 9
  Relative MIC: 64
[1]; Escherichia coli ATCC 25922 (EC-SEN), evolved line 10
  Relative MIC: 16
[1]; Escherichia coli NCTC 13846 (EC-MDR), evolved line 1
  Relative MIC: 64
[1]; Escherichia coli NCTC 13846 (EC-MDR), evolved line 2
  Relative MIC: 32
[1]; Escherichia coli NCTC 13846 (EC-MDR), evolved line 3
  Relative MIC: 64
[1]; Escherichia coli NCTC 13846 (EC-MDR), evolved line 4
  Relative MIC: 64
[1]; Escherichia coli NCTC 13846 (EC-MDR), evolved line 5
  Relative MIC: 64
[1]; Escherichia coli NCTC 13846 (EC-MDR), evolved line 6
  Relative MIC: 64
[1]; Escherichia coli NCTC 13846 (EC-MDR), evolved line 7
  Relative MIC: 32
[1]; Escherichia coli NCTC 13846 (EC-MDR), evolved line 8
  Relative MIC: 64
[1]; Escherichia coli NCTC 13846 (EC-MDR), evolved line 9
  Relative MIC: 64
[2]; E. coli NCTC 13846 (EC-MDR), ancestor strain, sheet fig 2a
  MIC of ancestor: 1 µg/mL
[2]; EC-MDR, Escherichia coli NCTC 13846, ancestor strain
  MIC of ancestor: 1 µg/mL
[2]; EC-SEN, Escherichia coli ATCC 25922, ancestor strain
  MIC of ancestor: 1 µg/mL
[2]; Escherichia coli ATCC 25922 (EC-SEN), ancestor strain, sheet fig 2a
  MIC of ancestor: 1 µg/mL
[2]; Escherichia coli ATCC 25922 (EC-SEN)
  MIC: 1 µg/mL
[2]; Escherichia coli NCTC 13846 (EC-MDR)
  MIC: 1 µg/mL
[3]; AB-SEN, Acinetobacter baumannii ATCC 17978, ancestor strain
  MIC of ancestor: 0.5 µg/mL
[3]; Acinetobacter baumannii ATCC 17978 (AB-SEN), ancestor strain, sheet fig 2a
  MIC of ancestor: 0.5 µg/mL
[3]; Acinetobacter baumannii ATCC 17978 (AB-SEN)
  MIC: 0.5 µg/mL
[3]; Acinetobacter baumannii ATCC BAA-1605 (AB-MDR)
  MIC: > 32 µg/mL
